In patent US8309745B2, “Epigallocatechin dimers or trimers having lipase inhibitory activity and/or antioxidant activity” (Suntory Holdings Limited, priority 2004, dated 2012):

Experiments:
swine pancreatic lipase = biological target: T1, swine pancreatic lipase (Sus scrofa, UniProt P00591); assay: Measurement of lipase inhibitory activity (4-UMO fluorescence assay); assay type: biochemical; settings: for IC50: swine pancreatic lipase, 4-UMO substrate, pH 8.0, 30-minute reaction, read-out: Lipase Inhibitory Activities of Various Polyphenols IC50; for lipase inhibitory activity compared with EGCG: in words
T1 construct: purchased Sigma
T1 sequence (P00591 1-450): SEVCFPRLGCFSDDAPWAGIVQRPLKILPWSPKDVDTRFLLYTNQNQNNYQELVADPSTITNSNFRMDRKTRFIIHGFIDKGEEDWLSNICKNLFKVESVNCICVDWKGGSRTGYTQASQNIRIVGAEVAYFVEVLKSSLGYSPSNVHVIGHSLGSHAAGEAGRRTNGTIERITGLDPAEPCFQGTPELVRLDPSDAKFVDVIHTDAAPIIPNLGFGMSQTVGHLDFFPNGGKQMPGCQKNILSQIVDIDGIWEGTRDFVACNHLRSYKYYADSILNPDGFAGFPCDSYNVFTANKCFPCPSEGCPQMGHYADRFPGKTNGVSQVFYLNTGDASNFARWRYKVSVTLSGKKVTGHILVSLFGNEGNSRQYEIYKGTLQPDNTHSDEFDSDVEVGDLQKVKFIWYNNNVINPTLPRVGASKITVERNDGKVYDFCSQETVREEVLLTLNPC
Source text: Lipase inhibitory activity can be measured by any one of the lipase activity assays that are described in the prior applications mentioned in the Background Art. As for inhibitory activity against pancreatic lipase, an oleic ester of fluorescent 4-methylumbelliferone may be used as a substrate to measure the fluorescence from 4-methylumbelliferone that is formed by reaction with the lipase. The amount of a sample that provides 50% inhibition of lipase activity (IC50) may be substituted to express lipase inhibitory activity in accordance with the usual method.
For lipase activity measurement, an oleic ester of fluorescent 4-methylumbelliferone (4-UMO) was used as a substrate and the fluorescence from 4-methylumbelliferone formed by enzyme reaction was measured.
The buffer used in the measurement was 13 mM tris-HCl (pH 8.0) containing 150 mM NaCl and 1.36 mM CaCl2. The substrate 4-UMO (product of Sigma-Aldrich Co.) was prepared as 0.1 M solution in DMSO and then diluted 1,000-fold with the buffer. The lipase subjected to enzyme measurement was swine pancreatic lipase (product of Sigma) that had been diluted to a concentration of 400 U/ml with the buffer.
To start the enzyme reaction, 50 μl of buffered 4-UMO solution and 25 μl of distilled water (or an aqueous solution of sample) were loaded and mixed on a 96-well microplate and 25 μl of the buffered lipase solution was then added. After 30-minute reaction, 100 μl of 0.1 M citrate buffered solution (pH 4.2) was added to quench the reaction and the fluorescence from 4-methylumbelliferone (excitation wavelength: 355 nm; fluorescence wavelength: 460 nm), which was generated by the reaction, was measured with a fluorescence plate reader (Fluoroskan Asent CF: product of Labsystems).
The inhibitory activity of the test sample was determined as its amount that would provide 50% inhibition of lipase activity (IC50 in μl) compared to the activity of the control (distilled water).
The lipase inhibitory activities of six compounds (dimers of OHBFs and their trimer), as well as epigallocatechin gallate (EGCG) were measured in accordance with Example 1 and the results are shown in Table 1.

[1] = Superoxide anion radical scavenging activity (hypoxanthine-xanthine oxidase reaction, ESR with DMPO); settings: O2- generated by hypoxanthine-xanthine oxidase, DMPO trapping agent
Experimental: The superoxide anion radical scavenging activity was measured by the method to be described in Example 5. Briefly, O2^− was generated by means of hypoxanthine-xanthine oxidase reaction and 5,5-dimethyl-1-pyrrolin-N-oxide was used as a trapping agent to perform measurement by ESR. Measurements were conducted in the presence or absence of compounds of the present invention and the results were expressed as IC50 or the amount of a sample that provided 50% suppression of O2^− generation.
Evaluation was made of the activity for scavenging superoxide anion radicals generated by hipoxanthine-xanthine oxidase reaction, a kind of active oxygen.
After preparing (1) 2 mM hypoxanthine solution (dissolved in 0.1 M phosphate buffered solution at pH 7.4) and (2) 5.5 mM diethylenetriamine-pentaacetic acid (dissolved in 0.1 M phosphate buffered solution at pH 7.4), 5.0 ml of the solution (1), 3.5 ml of the solution (2), and 1.5 ml of 5,5-dimethyl-1-pyrrolin-N-oxide (DMPO, product of LABOTECH) were mixed to make reagent 1. A 50-μl portion of reagent 1 was put in a 1.5-ml microtube and incubated at 37° C. for 4 minutes. To the incubated reagent 1, a methanol solution of the sample was added in an amount of 20 μl and then 50 μl of xanthine oxidase (0.4 units/ml) was added, followed by stirring for 10 seconds. The reaction mixture was injected into a hematocrit tube, which was set in an ESR apparatus and sweeping in a magnetic field was started 60 seconds after addition of xanthine oxidase. The conditions of ESR measurement were as follows: Power, 4 mW; C. Field, 335.5 mT, SwWid (±), 5 mT; SwTime, 1 min; ModWid, 0.1 mT; Amp, 160; TimeC, 0.1 sec; Temperature, 20° C.
Among the ESR signals from DMPO-OOH, the signal of the lowest field strength was compared in height to the internal standard Mn^2+ signal and the ratio (S/M) was assumed to represent the amount of O2^− and the O2^− scavenging activity was calculated by the following formula: O2^− scavenging activity(%)=100−{100×(S/M in the presence of the sample)/(S/M in the absence of the sample)} Results: […]

SMILES: Oc1cc([C@H]2Oc3cc(O)c(Cc4c(O)cc(O)c5c4O[C@H](c4cc(O)c(O)c(O)c4)[C@H](O)C5)c(O)c3C[C@H]2O)cc(O)c1O [Didesgalloyl oolong homobisflavan B (6), didesgalloyl oolong homobisflavan B]
- IC50 (swine pancreatic lipase): 2080 nM

SMILES: O=C(O[C@@H]1Cc2c(O)cc(O)cc2O[C@@H]1c1cc(O)c(O)c(O)c1)c1cc(O)c(O)c(O)c1 [Epigallocathechin 3-O-gallate (7), (−)-epigallocatechin-3-O-gallate, reference compound]
- IC50 [1]: 14000 nM

SMILES: O=C(O[C@@H]1Cc2c(O)cc(O)c(Cc3c(O)cc(O)c4c3O[C@H](c3cc(O)c(O)c(O)c3)[C@H](OC(=O)c3cc(O)c(O)c(O)c3)C4)c2O[C@@H]1c1cc(O)c(O)c(O)c1)c1cc(O)c(O)c(O)c1 [Oolong homobisflavan A (1), oolong homobisflavan A]
- IC50 (swine pancreatic lipase): 49 nM

SMILES: O=C(O[C@@H]1Cc2c(cc(O)c(Cc3c(O)cc(O)c4c3O[C@H](c3cc(O)c(O)c(O)c3)[C@H](OC(=O)c3cc(O)c(O)c(O)c3)C4)c2O)O[C@@H]1c1cc(O)c(O)c(O)c1)c1cc(O)c(O)c(O)c1 [Oolong homobisflavan B (2), oolong homobisflavan B]
- IC50 (swine pancreatic lipase): 108 nM

SMILES: O=C(O[C@@H]1Cc2c(cc(O)c(Cc3c(O)cc4c(c3O)C[C@@H](OC(=O)c3cc(O)c(O)c(O)c3)[C@@H](c3cc(O)c(O)c(O)c3)O4)c2O)O[C@@H]1c1cc(O)c(O)c(O)c1)c1cc(O)c(O)c(O)c1 [Oolong homobisflavan C (3), oolong homobisflavan C]
- IC50 [1]: 6200 nM
- lipase inhibitory activity compared with EGCG (swine pancreatic lipase): potent lipase inhibitory activity compared with EGCG
- IC50 (swine pancreatic lipase): 97 nM

SMILES: O=C(O[C@@H]1Cc2c(O)cc(O)c(Cc3c(O)c(Cc4c(O)cc(O)c5c4O[C@H](c4cc(O)c(O)c(O)c4)[C@H](OC(=O)c4cc(O)c(O)c(O)c4)C5)c4c(c3O)C[C@@H](OC(=O)c3cc(O)c(O)c(O)c3)[C@@H](c3cc(O)c(O)c(O)c3)O4)c2O[C@@H]1c1cc(O)c(O)c(O)c1)c1cc(O)c(O)c(O)c1 [Trimer (4)]
- IC50 [1]: 10100 nM
- lipase inhibitory activity compared with EGCG (swine pancreatic lipase): potent lipase inhibitory activity compared with EGCG
- IC50 (swine pancreatic lipase): 129 nM

SMILES: O=C(O[C@@H]1Cc2c(O)cc(O)c(Cc3c(O)cc(O)c4c3O[C@H](c3cc(O)c(O)c(O)c3)[C@H](O)C4)c2O[C@@H]1c1cc(O)c(O)c(O)c1)c1cc(O)c(O)c(O)c1 [monodesgalloyl oolong homobisflavan A]
- IC50 (swine pancreatic lipase): 271 nM
